Laboratory results as given in PubChem BioAssay AID1508612.

Experiment: passive permeability, PAMPA, ADME assay (AID 1508612)
Conditions: pH 7.4, 30.0 min, 50.0 µM

Row | Papp [×10⁻⁶ cm/s] | SMILES
1 | 22.6 | CN(C)C(=O)c1cc(-c2ccc(S(C)(=O)=O)cc2)c2cnn(C)c2n1
2 | 135 | O=C(NC1CCCc2c1[nH]c1ccccc21)c1ccccc1 (configuration not stated)
3 | > 1000 | Cc1cc(C)nc(NC(=S)N2CCN(c3ccc(Cl)cc3[N+](=O)[O-])CC2)c1
4 | 407 | O=S(=O)(c1ccc(Cl)cc1)c1ccccn1
5 | < 1 | O=C(O)c1ccnc(-c2cc(C(=O)NCCc3ccccc3)ccn2)c1
6 | 7.06 | C[C@@]12O[C@@H](C[C@]1(O)CO)n1c3ccccc3c3c4c(c5c6ccccc6n2c5c31)CNC4=O
7 | > 1000 | O=C1Nc2ccccc2/C1=C/c1ccnc2ccccc12
8 | > 1000 | COc1cccc(-c2nc(-c3c(C)noc3C)cc3[nH]c(C)cc23)c1OC
9 | 486 | CCOC(=O)C1CCN(C(=O)C(C)(C)NC(=O)Nc2ccc(-c3ccccc3)cc2)CC1
10 | 882 | CCOc1ccc(NC(=O)c2nc(S(=O)(=O)Cc3ccccc3F)ncc2Cl)cc1
11 | 181 | Nc1nc2c(s1)C(c1ccc(F)cc1F)CC(=O)N2 (configuration not stated)
12 | 26.4 | COc1ccc(-c2cc3nccn3c(Nc3ncccc3C(N)=O)n2)cc1OC
13 | 115 | Cc1c(Cl)cccc1NC(=O)CNS(=O)(=O)c1cccs1
14 | > 1000 | Cc1cccc(C)c1NC(=O)c1nc(SC(C)C)ncc1Cl
15 | 23.9 | Cc1ccccc1C(=O)N1CCc2cc(-c3nc(NC(=O)Cc4ccc5c(c4)OCO5)sc3C)ccc21
16 | > 1000 | CN1CCC(N(Cc2cccs2)c2ccccc2)CC1
17 | 38.5 | O=C(Nc1ccc(F)c(C(F)(F)F)c1)Nc1nnc(-c2ccncc2)s1
18 | 156 | CC(=O)c1ccc(N2CCN(c3ccc(NC(=O)c4ccc(F)cc4)cc3C(=O)O)CC2)cc1
19 | 619 | COc1cccc(CNC(=O)CCCn2nc(C)c3c(C)n(-c4ccc(C)cc4)nc3c2=O)c1OC
20 | 821 | N#Cc1nc(-c2cccc3ccccc23)oc1Nc1ccccc1
21 | 247 | Cc1onc(-c2ccccc2)c1C(=O)Nc1nnc(COc2ccc(Cl)cc2)s1
22 | > 1000 | Cc1ccc(-n2ncc3c(NCCCN(C)C)ncnc32)cc1Cl
23 | 482 | CCN(CC)C(=O)c1ccc(O)c(OC)c1
24 | > 1000 | CCOc1ccc(N2CC(c3nc(-c4cc(OC)c(OC)c(OC)c4)no3)CC2=O)cc1 (configuration not stated)
25 | 35.2 | O=C1Cc2cc(C(=O)c3ccco3)ccc2N1
26 | 97.5 | OCCn1cc(-c2cnc3nnn(Cc4ccc5ncccc5c4)c3n2)cn1
27 | 111 | O=C(O)c1cccc(-c2noc(-c3ccccc3F)n2)c1

Row | Papp [×10⁻⁶ cm/s] | SMILES
28 | 550 | O=[N+]([O-])c1cccc(CSc2nc3ncc(Br)cc3[nH]2)c1
29 | 8.58 | Cc1noc(/C=C/c2ccccc2F)c1S(=O)(=O)N1CCC(C(=O)Nc2ccc(C#N)cc2)CC1
30 | > 1000 | CCOC(=O)c1ccc(-n2cnc3cc(C(=O)N4CCCCC4)ccc32)cc1
31 | 492 | N#Cc1cccc(-c2nccc(-n3ccnc3)n2)c1
32 | 287 | COc1ccccc1C(=O)Nc1nnc(SCc2cc(=O)c3ccccc3[nH]2)s1
33 | 228 | COc1ccc(-c2nc3ccc(C4=NNC(=O)CC4C)cc3[nH]2)cc1 (configuration not stated)
34 | 2.48 | Cc1ccc(S(=O)(=O)Nc2cnccc2C(=O)Nc2nc(-c3cc4ccccc4o3)cs2)cc1
35 | > 1000 | CCOc1cc(-c2nccc3cc(OC)c(OC)cc23)cc(OCC)c1OCC
36 | > 1000 | Cc1cc(-c2nnc3n2CCCCC3)c(C)n1-c1cccc(C(F)(F)F)c1
37 | < 1 | c1cc(OCCN2CCCCC2)cc(-c2n[nH]c3ccc(-c4ncn[nH]4)cc23)c1
38 | 892 | CCCCOc1ccc(C(=O)N2CCC(c3n[nH]c(=O)n3-c3ccc(C)cc3)CC2)cc1
39 | 1.2 | Cc1ccc(S(=O)(=O)c2cnc(SC(C)C(=O)Nc3ccccc3)[nH]c2=O)cc1 (configuration not stated)
40 | > 1000 | Cc1nc(NCc2ccco2)nc2c1C(=O)CC(C)C2 (configuration not stated)
41 | > 1000 | CC(C)c1ccccc1-c1ncc(F)c(NCc2ccc(-n3ccnn3)cc2)n1
42 | < 1 | O=C(Nc1ncc(Cc2ccc(C(F)(F)F)cc2)s1)c1cnc(-c2ccccc2)[nH]1
43 | > 1000 | CCc1cccc(C)c1Nc1c(-c2ccc(N(C)C)cc2)nc2ncccn12
44 | 7.6 | O=C(NC1CCCc2c1[nH]c1ccc(Cl)cc21)c1ccncc1 (configuration not stated)
45 | 276 | Cc1c(C(=O)OCCOc2ccccc2)[nH]c2c1C(=O)CC(c1ccccc1)C2 (configuration not stated)
46 | 144 | Cc1ccc2nc(-c3cc(NC(=O)c4ccc5c(c4)OCCO5)ccc3Cl)oc2c1
47 | 12.5 | COC(=O)c1ccc2c(C(=Nc3ccc(N(C)C(=O)CN4CCN(C)CC4)cc3)c3ccccc3)c(O)[nH]c2c1
48 | 936 | O=C(Nc1ccc(Cl)c(S(=O)(=O)N2CCOCC2)c1)c1ccc(S(=O)(=O)N2CCOCC2)cc1
49 | 593 | Cc1cc(C)nc(NC(=S)N2CCN(c3cccc(C(F)(F)F)c3)CC2)c1
50 | 364 | CC(=O)c1c(C)[nH]c(C(=O)Nc2ccc(Cl)cc2)c1C
51 | > 1000 | O=C(CCCc1ccc2cccnc2n1)NCc1cc(-c2ccc(F)c(C(F)(F)F)c2)no1
52 | < 1 | CCc1ccc(NC(=O)CSC2=Nc3ccccc3C3=NC(CC(=O)NCc4ccc5c(c4)OCO5)C(=O)N23)cc1 (configuration not stated)
53 | 257 | COc1cc(-c2csc(N3CCC(C(N)=O)CC3)n2)cc(OC)c1OC
54 | 30.5 | CN(C)C(=O)c1cccc(-c2csc(N3CCC(C(N)=O)CC3)n2)c1

Row | Papp [×10⁻⁶ cm/s] | SMILES
55 | > 1000 | Cc1cnc(-c2ccccc2C(C)C)nc1NCC1CCN(C2COC2)CC1
56 | > 1000 | COc1ccc(CN2CCc3nc(N4CCN(c5ccc(F)cc5)CC4)ncc3C2)c(OC)c1OC
57 | > 1000 | Clc1ccc(-c2nnc(C3CCCCC3)o2)cc1
58 | < 1 | O=C(NC1CCCc2c1cnn2-c1ccc(F)cc1F)c1ccc(C2(C(F)(F)F)N=N2)cc1 (configuration not stated)
59 | < 1 | Cc1ccccc1C(=O)N1CCc2cc(-c3nc(NC(=O)Cc4ccc5ccccc5c4)sc3C)ccc21
60 | 359 | CC1=Nc2cc(C(=O)NCCc3ccccc3)ccc2Sc2c(C)ccc(C)c21
61 | 11.1 | Cn1cc(C2=C(c3cn(CCCSC(=N)N)c4ccccc34)C(=O)NC2=O)c2ccccc21
62 | 38.4 | CCOC(=O)C1CCN(C(=O)Nc2ccc3c(c2)nc(C)n3C)CC1
63 | 581 | Cc1ccc(Cl)cc1NS(=O)(=O)c1cc2c(cc1F)NC(=O)CC2
64 | > 1000 | COc1ccccc1CNc1ccc(N2CCCCC2)cc1
65 | > 1000 | CCc1nc2c(sc3nc4c(cc32)COC(C)(C)C4)c(=O)n1Cc1ccco1
66 | 592 | O=C(COc1ccccc1)NCC(c1cccs1)S(=O)(=O)c1ccc(Cl)cc1 (configuration not stated)
67 | > 1000 | C[C@@H]1C(=O)O[C@H]2[C@H]1CC[C@@]1(C)Cc3sc(NS(=O)(=O)Cc4ccccc4)nc3[C@@H](C)[C@H]21
68 | > 1000 | CNC(=O)c1ccccc1Nc1nc(Nc2ccc(N3CCOCC3)cc2OC)ncc1Cl
69 | > 1000 | CC[C@@H](C)Nc1cc(C(=O)NC2CC3CCC(C2)N3c2ccc(C(=O)C3CC3)cn2)c(C)cc1C(N)=O (some centres not stated)
70 | 18.4 | O=S(=O)(Nc1nccs1)c1ccc(NCc2cccc(Cl)c2O)cc1
71 | 5.3 | CCCCCCCCc1ccc(CCC(N)(CO)CO)cc1
72 | > 1000 | COc1ccc(-c2ccc3ncc(Nc4cccnc4OC)n3n2)cn1
73 | 860 | Cc1cccc(S(=O)(=O)Nc2cnccc2C(=O)Nc2nc(-c3ccccc3)cs2)c1
74 | 57.5 | Fc1cc(Nc2nc(-c3ccncc3)nc3ccccc23)ccc1-c1ccc(F)c(F)c1F
75 | 755 | CCCc1ccc(-c2csc(NC(=O)c3ccncc3NS(=O)(=O)c3ccc(C)cc3)n2)cc1
76 | 128 | CC1=C(C(=O)Nc2nncs2)C(c2ccccc2Br)N=C(Nc2nc3ccccc3o2)N1 (configuration not stated)
77 | 600 | CCCCCCOc1ccc(OC(=O)c2ccncc2)cc1
78 | 317 | Cn1ccc2c(C(=O)NCc3cccnc3)nc(-c3ccc(CO)cc3)cc21
79 | 3.2 | Cn1cc(Nc2cnccc2C(=O)O)c2cccnc21
80 | > 1000 | CCCCn1cnc2cc(NCc3ccc(OCC)cc3)ccc21
81 | 912 | Cc1cccc(-n2cnc3cc(C(=O)N4CCCCC4)ccc32)c1

Row | Papp [×10⁻⁶ cm/s] | SMILES
82 | < 1 | O=C(Nc1ccc([S+](=O)([O-])Nc2nccs2)cc1)c1ccn[nH]1
83 | > 1000 | O=C(Nc1ccc(N2CCN(C(=O)c3ccccc3F)CC2)cc1)c1cncc(Br)c1
84 | 306 | O=[S+]([O-])(Nc1ccccc1)c1ccc(NCc2cccc(C(F)(F)F)c2F)cc1
85 | 3.4 | Cc1ccc(S(=O)(=O)n2cc(C(=O)Nc3nc(-c4ccccc4)cs3)c3ccccc32)cc1
86 | 24.2 | Cc1ccc(-c2cc(C(=O)NCc3cnn(C)c3)c3cc(Br)ccc3n2)cc1
87 | 178 | Oc1ccc(CNc2ccc(F)cc2F)c2cccnc12
88 | > 1000 | COC(C)(C)CCn1nc(Nc2c(C)cccc2C)c2cnc(Nc3ccc(OCCN4CCCC4)c(F)c3)nc21
89 | > 1000 | CC1CN(c2ccc(Nc3nc(-c4ccncc4)nc4ccccc34)cc2F)CC(C)O1 (configuration not stated)
90 | 927 | CCOc1ccc(NC(=O)CC2C(=O)N(c3ccc(F)cc3)C(=O)N2CCc2sccc2C)cc1 (configuration not stated)
91 | 14 | C#Cc1ccc(NC(=O)c2cnn3c(C)cc(C)nc23)cc1
92 | 72.2 | Fc1ccc(Nc2nc(-c3ccncc3Cl)nc3ccccc23)cc1F
93 | 976 | Cc1cc(/C=C2/C(=O)Nc3ccccc32)cc(C)c1O
94 | 924 | NC(=O)C1CCN(c2ncc(-c3cccc(N4CCCCC4)c3)s2)CC1
95 | 298 | CC[C@H](NC(=O)c1c(O)c(-c2ccccc2)nc2ccccc12)c1ccccc1
96 | 710 | NC(=O)C1CCN(c2ncc(-c3ccc4c(c3)OCCO4)s2)CC1
97 | 37 | COc1cccc(C(=O)NCCSc2c(-c3ccc(F)cc3)[nH]c3ccccc23)c1OC
98 | 297 | Nc1nc2c(s1)C(c1ccc(Br)cc1)CC(=O)N2 (configuration not stated)
99 | > 1000 | Cc1ccnc(NC(=S)N2CCN(c3ccc(C(F)(F)F)cc3[N+](=O)[O-])CC2)c1
100 | 897 | O=C1CCCC2=C1C(c1ccncc1Cl)N=C(Nc1nc3ccccc3o1)N2 (configuration not stated)
101 | 477 | CCOC(=O)N1CCN(Cc2nc3c(c(=O)n(C)c(=O)n3C)n2Cc2cccc(C)c2)CC1
102 | 292 | O=C(NCCCN1CCCC1=O)c1ccc(-c2ncc3cnc(-c4ccccc4)cn23)cc1
103 | 47.5 | CC(C)(C#N)c1ccc(N2C(=O)OCc3cnc4ccc(-c5cnc6ccccc6c5)cc4c32)cc1
104 | > 1000 | Cc1cc(C)nc(NC(=S)N2CCN(c3nccc(C(F)(F)F)n3)CC2)c1
105 | 253 | c1ccc(CNc2nc(NCc3ccccc3)c3ccccc3n2)cc1

Row | SMILES | Papp [×10⁻⁶ cm/s]
106 | COc1ccc2c(c1)/C(=C/c1cnc[nH]1)C(=O)N2 | 220
107 | COC12C(COC(N)=O)C3=C(C(=O)C(C)=C(N)C3=O)N1CC1C2N1C (configuration not stated) | 1.95
